Results taken from patent US11366103B2, “Multi-well micropatterning by ablation” (Massachusetts Institute of Technology, priority 2006, dated 2022).
Read-outs that look alike come from different tables or passages of the source.

How the values were obtained:
[1] = test system: CYP450 enzymes; experiment: CYP450-mediated dealkylation of BFC and MFC in micropatterned rat co-cultures; assay type: in vitro ADME
Method: Therefore, in order to improve the signal-to-noise ratio, levels of CYP1A was ‘induced’ by pre-incubating co-cultures with 3 μM 3-Methylcholanthrene (3-MC) for 3 days prior to assessment of substrate metabolism. […] ER and MR are fluorimetric substrates specific for CYP1A enzymes. […] Use of non-specific substrates provides for an ‘average’ value of CYP450 activity, and is useful to determine whether CYP450 enzymes are functional in a particular system. In FIG. 22A, co-cultures were able to successfully dealkylate BFC and MFC into 7-HFC. […] CYP450 enzymes are oxido-reductases that are part of the Phase I metabolic pathway in hepatocytes. The phase II family of enzymes, on the other hand, is typically involved in the conjugation of highly polar moieties (i.e. sulfate group, glucuronic acid) to xenobiotics to make them water-soluble for excretion out of the body via bile or through the kidneys. A useful substrate for evaluating conjugation reactions is the fluorescent substrate, 7-Hydroxycoumarin (7-HC), which gets modified to non-fluorescent compounds, 7-HC-Glucuronide and 7-HC-Sulfate. The level of conjugation can then be quantified by using bacterial-derived β-glucuronidase and aryl-sulfatase enzymes to ‘deconjugate’ the Phase II products and recover 7-HC fluorescence. In our micropatterned rat co-cultures, we observed time-dependent conjugation of 7-HC by Phase-II enzymes (FIG. 22B). […]

[2] = target: T1, CYP2A6 (Homo sapiens, UniProt P11509)
T1 sequence (P11509 1-494): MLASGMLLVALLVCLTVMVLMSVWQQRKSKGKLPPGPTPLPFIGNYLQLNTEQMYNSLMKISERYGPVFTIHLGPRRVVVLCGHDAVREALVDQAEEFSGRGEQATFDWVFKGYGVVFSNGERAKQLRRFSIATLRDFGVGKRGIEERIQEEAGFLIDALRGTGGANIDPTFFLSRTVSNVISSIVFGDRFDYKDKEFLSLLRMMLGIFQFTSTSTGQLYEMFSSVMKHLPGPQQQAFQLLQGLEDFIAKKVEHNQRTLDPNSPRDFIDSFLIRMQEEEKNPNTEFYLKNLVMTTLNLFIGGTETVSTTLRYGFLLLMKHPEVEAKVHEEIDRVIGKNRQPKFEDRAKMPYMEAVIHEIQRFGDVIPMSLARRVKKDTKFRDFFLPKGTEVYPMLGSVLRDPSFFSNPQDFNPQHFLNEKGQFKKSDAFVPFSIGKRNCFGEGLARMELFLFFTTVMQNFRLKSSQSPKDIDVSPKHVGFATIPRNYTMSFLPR

[3] = test system: CYP1A
Method: Cultures were treated for 3-4 days before incubation with fluorometric or conventional CYP450 substrates. All data was normalized to vehicle-only controls (fold change of 1). […] Substrate/inhibitor combinations: BFC/ketoconazole (CYP3A4), MFC/sulfaphenazole (CYP2C9), Coumarin/methoxsalen (CYP2A6), and 7-Hydroxycoumarin/Salicylamide (Glucuronidation). […] Data were normalized to vehicle-only controls.
Stock solutions of prototypic CYP450 inducers (Sigma) were made in Dimethylsulfoxide (DMSO), except for Phenobarbital, which was dissolved in water. […] Control cultures were treated with vehicle (DMSO) alone for calculations of fold induction. To enable comparisons across inducers, DMSO levels were kept constant at 0.1% (v/v) for all conditions.

[4] = test system: micropatterned co-cultures of primary human hepatocytes and 3T3-J2 fibroblasts
Method: Mitochondrial toxicity was evaluated using the MTT assay. […] All data were normalized to a vehicle-only control. […] Tissues were dosed repeatedly every 48 hours. All data was normalized to mitochondrial activity in untreated cultures (100% activity).
In order to assess the utility of micropatterned co-cultures for toxicity screening, the acute and chronic toxicity of model hepatotoxins was quantified. […] Establishment of liver tissue that is stable over several weeks is crucial for evaluating chronic toxicity due to repeated exposures.
Cultures were incubated with various concentrations of compounds dissolved in culture medium for 24 hours (acute toxicity) or extended time periods (chronic toxicity, 1-9 days). Cell viability was subsequently measured via the MTT (3-(4,5-dimethylthiazol-2-yl)-2,5-diphenyl tetrazolium bromide; Sigma) assay, which involves cleavage of the tetrazolium ring by mitochondrial dehydrogenase enzymes to form a purple precipitate. MTT was added to cells in DMEM without phenol red at a concentration of 0.5 mg/mL. After an incubation time of 1 hour, the purple precipitate was dissolved in a 1:1 solution of DMSO and Isopropanol. The absorbance of the solution was measured at 570 nm (SpectraMax spectrophotometer, Molecular Devices, Sunnyvale, Calif.).

[5] = test system: CYP2A; experiment: Coumarin 7-hydroxylation in micropatterned rat co-cultures; assay type: in vitro ADME
Source text: (§1) FIGS. 33A-33C depict a comparison of Phase I- and Phase II-mediated substrate metabolism in human and rat co-cultures. Micropatterned cultures with either primary human or primary rat hepatocytes were created using the stencil-based process. Subsequent addition of 3T3-J2 fibroblasts created co-cultures. […] Data from a single representative day is shown.
(§2) Significant variations in hepatocellular functions (i.e. CYP450 enzymes) across different species have been implicated in the inability of animal models to adequately predict adverse outcomes in clinical trials involving humans. Nonetheless, studies in live animals are required by the FDA since they provide valuable in vivo data in a preclinical setting. Therefore, the selection of an animal species (i.e. rat, mouse, monkey, guinea pig) in which the liver-specific metabolism and toxicity of a particular candidate drug are similar to that seen in humans is crucial for clinical success. In vitro human and animal models that closely resemble in-vivo functionality may find use in such a selection process. […] For instance, BFC was dealkylated in rat co-cultures at a rate (pmoles/min/10^6 cells) that was ˜18 fold greater than the rate seen in human co-cultures.
Spent media was stored at −20° C.

[6] = target: T2, CYP2A (Homo sapiens, UniProt P11509); experiment: Coumarin 7-hydroxylation in micropatterned human co-cultures; assay type: in vitro ADME
T2 construct: endogenous in cells; host or cells: primary human hepatocytes co-cultured with murine 3T3-J2 fibroblasts
T2 sequence (P11509 1-494): T1 sequence (P11509 1-494)
Source text: as §1, §2

[7] = test system: CYP3A; experiment: Inhibition of BFC dealkylation in rat co-cultures; conditions: BFC in the presence of ketoconazole
[8] = test system: co-cultures of primary rat hepatocytes and 3T3-J2 fibroblasts; conditions: for viability relative to untreated controls: 1 mM
Method: Toxicity of pharmaceuticals due to chronic exposure is clinically relevant. Since hepatocyte culture models utilized in the pharmaceutical industry lose viability and phenotypic functions within a few days, toxicity due to repeated drug exposures over days or weeks cannot be evaluated. […] Co-cultures were incubated with varying doses of toxins dissolved in culture medium over several days. Mitochondrial activity (MTT assay, see methods) was evaluated at different time points to assess viability in co-cultures.
Pure hepatocyte monolayers rapidly lose phenotypic functions and thus represent an ‘unstable’ model of the liver. […] The objective here was to compare toxicity of model Hepatotoxins in pure hepatocyte monolayers and co-cultures. Pure hepatocyte monolayers (Day 2 of culture) or hepatocyte-fibroblast co-cultures (Day 13) prepared from the same rat liver were treated with Hepatotoxins for 24 hours, after which viability was assessed via the MTT assay.
All chemicals were purchased from Sigma. In order to evaluate the acute toxicity of compounds, cultures were incubated with various concentrations of compounds dissolved in culture medium for 24 hours. For chronic studies, culture media with fresh Hepatotoxins was added every 2 days. Cell viability at different time points was subsequently measured via the MTT assay.

[9] = test system: pure hepatocyte monolayers; conditions: rat, 24 h; for viability relative to untreated controls: 1 mM
[10] = test system: CYP1A2; experiment: Dose and time-dependent CYP1A2 induction in micropatterned co-cultures; conditions: incubation for 1 or 3 days

## O=c1cc(C(F)(F)F)c2ccc(OCc3ccccc3)cc2o1 [BFC]
[1]; rat co-cultures, day 14
  rate of BFC metabolism relative to rate of MFC metabolism: ~12 fold
[1]; rat, human
  rate of BFC dealkylation in rat relative to human co-cultures: ~18 fold

## COc1c2occc2cc2ccc(=O)oc12 [Methoxsalen]
[2]
  inhibition of CYP2A6 activity: dose-dependent inhibition

## COc1ccc2[nH]c([S+]([O-])Cc3ncc(C)c(OC)c3C)nc2c1 (centres unmarked) [Omeprazole]
[3]
  CYP1A induction, effectiveness in human over rat models: 8 fold

## [Cd] [cadmium]
[4]; 24 hrs exposure, MTT
  shape of dose-dependent acute toxicity profile: relatively linear toxic profile
[4]; concentration producing 50% reduction in mitochondrial activity (MTT) after 24 hours exposure
  TC50 relative to other compounds: three orders-of-magnitude lower than the TC50 values for aspirin and caffeine

## O=c1ccc2ccccc2o1 [coumarin]
[5]
  coumarin hydroxylation: unable to hydroxylate coumarin
[6]
  rate of coumarin hydroxylation: greater than 6 pmol/min/10^6 cells

## CC(=O)N1CCN(c2ccc(OCC3COC(Cn4ccnc4)(c4ccc(Cl)cc4Cl)O3)cc2)CC1 (centres unmarked) [ketoconazole]
[7]
  inhibition of BFC dealkylation: ~33%

## CN(C)CCN(Cc1cccs1)c1ccccn1 [methapyrilene]
[8]
  relative toxicity in pure monolayers versus co-cultures: more toxic to pure monolayers as compared to co-cultures
[8]; rat, 24 h
  TC50: 1400 to 1600 µM
  viability relative to untreated controls: greater than 80%
[9]
  viability relative to untreated controls: less than 6%

## COc1ccc(CN(CCN(C)C)c2ccccn2)cc1 [pyrilamine]
[8]
  relative toxicity in pure monolayers versus co-cultures: more toxic to pure monolayers as compared to co-cultures
[8]; rat, 24 h
  TC50: 1000 to 1200 µM
  viability relative to untreated controls: greater than 80%
[8]; rat, 7 days
  TC50: ~200 µM
[9]
  viability relative to untreated controls: less than 6%

## Cc1c(C)c2c(c(C)c1O)CCC(C)(COc1ccc(CC3SC(=O)NC3=O)cc1)O2 (centres unmarked) [troglitazone]
[4]
  chronic toxicity: dose and time-dependent toxicity
[8]
  relative toxicity in pure monolayers versus co-cultures: more toxic to co-cultures as compared to pure monolayers
[8]; rat, 24 h, 170 μM
  reduction of viability: ~44%
[9]
  concentration giving ~44% reduction of viability: 227 µM

## O=c1cc(-c2ccccc2)oc2ccc3ccccc3c12 [β-Naphthoflavone]
[10]
  induction of CYP1A2 activity: induced CYP1A2 activity in a dose and time-dependent manner
